In the NIST ThermoML archive (doi:10.1016/j.tca.2006.04.016):
Numbers after ± are expanded uncertainties.

Test: xn = mol fraction of the nth substance listed
Settings: 101 kPa, Liquid, Vibrating tube method, x1 = 1

SMILES: O [water] + CN(C)CCCN
- mass density (283.15 K): 999.7 ± 0.51 kg/m3
- mass density (323.15 K): 988.03 ± 0.5 kg/m3
- mass density (328.15 K): 985.69 ± 0.5 kg/m3
- mass density (333.15 K): 983.191 ± 0.5 kg/m3
- mass density (338.15 K): 980.55 ± 0.5 kg/m3
- mass density (343.15 K): 977.76 ± 0.5 kg/m3
- mass density (348.15 K): 974.84 ± 0.5 kg/m3
- mass density (353.15 K): 971.79 ± 0.49 kg/m3
